In ChEMBL document CHEMBL1121776, “Folate antagonists. 18. Synthesis and antimalarial effects of N6-(arylmethyl)-N6-methyl-2,4,6-pteridinetriamines and related N6,N6-disubstituted 2,4,6-pteridinetriamines” (1981):
Values after ≈ are worked out from the molar mass of the structure shown.

Assays:
Type in all cases: functional
Mus musculus [1] = experiment: Parenteral antimalarial effect against Plasmodium berghei in mice (Mus musculus) at a dose of 80 subcutaneously mg/kg; Number of mice (Mus musculus) surviving at 60 days post infection and cured 7/10
Mus musculus [2] = experiment: Parenteral antimalarial effect against Plasmodium berghei in mice (Mus musculus) at a dose of 20 mg/kg subcutaneously; Number of mice (Mus musculus) surviving at 60 days post infection and cured 4/10; conditions: route subcutaneous
Mus musculus [3] = experiment: Parenteral antimalarial effect against Plasmodium berghei in mice (Mus musculus) at a dose of 40sc mg/kg; Number of mice (Mus musculus) surviving at 60 days post infection and cured 3/5
Mus musculus [4] = experiment: Parenteral antimalarial effect against Plasmodium berghei in mice (Mus musculus) at a dose of 160 mg/kg subcutaneously; Number of mice (Mus musculus) surviving at 60 days post infection and cured 5/5; conditions: route subcutaneous
Mus musculus [5] = experiment: Parenteral antimalarial effect against Plasmodium berghei in mice (Mus musculus) at a dose of 10sc mg/kg
Mus musculus [6] = experiment: Parenteral antimalarial effect against Plasmodium berghei in mice (Mus musculus) at a dose of 320 subcutaneous mg/kg; Number of mice (Mus musculus) surviving at 60 days post infection and cured 5/5
Mus musculus [7] = experiment: Parenteral antimalarial effect against Plasmodium berghei in mice (Mus musculus) at a dose of 160 mg/kg subcutaneously; Number of mice (Mus musculus) surviving at 60 days post infection and cured 10/10; conditions: route subcutaneous
Enterococcus faecalis [8] = experiment: In vitro antibacterial effect against Streptococcus faecalis MGH-2
Mus musculus [9] = experiment: Parenteral antimalarial effect against Plasmodium berghei in mice (Mus musculus) at a dose of 20 mg/kg subcutaneously; Number of mice (Mus musculus) surviving at 60 days post infection and cured 2/5; conditions: route subcutaneous
Staphylococcus aureus [10] = experiment: In vitro antibacterial effect against Staphylococcus aureus S18713 by using gradient plate test
Mus musculus [11] = experiment: Parenteral antimalarial effect against Plasmodium berghei in mice (Mus musculus) at a dose of 640 mg/kg subcutaneously; Number of mice (Mus musculus) surviving at 60 days post infection and cured 10/10; conditions: route subcutaneous
Shigella sonnei [12] = experiment: In vitro antibacterial effect against Shigella sonnei C-10 by using gradient plate test
Pseudomonas aeruginosa [13] = experiment: In vitro antibacterial effect against Pseudomonas aeruginosa 28 by using gradient plate test
[14] = test system: Mycobacterium tuberculosis; experiment: In vitro antibacterial effect against Mycobacterium tuberculosis H37Rv by using gradient plate test
Staphylococcus aureus [15] = experiment: In vitro antibacterial effect against Staphylococcus aureus UC-76 by using gradient plate test
Escherichia coli [16] = experiment: In vitro antibacterial effect against Escherichia coli Vogel by using gradient plate test
Mus musculus [17] = experiment: Parenteral antimalarial effect against Plasmodium berghei in mice (Mus musculus) at a dose of 20sc mg/kg
Mus musculus [18] = experiment: Parenteral antimalarial effect against Plasmodium berghei in mice (Mus musculus) at a dose of 320 subcutaneous mg/kg
Mus musculus [19] = experiment: Parenteral antimalarial effect against Plasmodium berghei in mice (Mus musculus) at a dose of 80 mg/kg subcutaneously; conditions: route subcutaneous
Mus musculus [20] = experiment: Parenteral antimalarial effect against Plasmodium berghei in mice (Mus musculus) at a dose of 20 mg/kg subcutaneously; Number of mice (Mus musculus) surviving at 60 days post infection and cured 8/15; conditions: route subcutaneous
Mus musculus [21] = experiment: Parenteral antimalarial effect against Plasmodium berghei in mice (Mus musculus) at a dose of 80 mg/kg subcutaneously; Number of mice (Mus musculus) surviving at 60 days post infection and cured 10/10; conditions: route subcutaneous
Mus musculus [22] = experiment: Parenteral antimalarial effect against Plasmodium berghei in mice (Mus musculus) at a dose of 640 subcutaneously mg/kg
Mus musculus [23] = experiment: Parenteral antimalarial effect against Plasmodium berghei in mice (Mus musculus) at a dose of 160 subcutaneously mg/kg
Mus musculus [24] = experiment: Parenteral antimalarial effect against Plasmodium berghei in mice (Mus musculus) at a dose of 40 mg/kg subcutaneously; conditions: route subcutaneous
Mus musculus [25] = experiment: Parenteral antimalarial effect against Plasmodium berghei in mice (Mus musculus) at a dose of 640 subcutaneously mg/kg; Number of mice (Mus musculus) surviving at 60 days post infection and cured 4/10
Mus musculus [26] = experiment: Parenteral antimalarial effect against Plasmodium berghei in mice (Mus musculus) at a dose of 320 subcutaneously mg/kg; Number of mice (Mus musculus) surviving at 60 days post infection and cured 1/5
Mus musculus [27] = experiment: Parenteral antimalarial effect against Plasmodium berghei in mice (Mus musculus) at a dose of 160 mg/kg subcutaneously; Number of mice (Mus musculus) surviving at 60 days post infection and cured 3/5; conditions: route subcutaneous
Mus musculus [28] = experiment: Parenteral antimalarial effect against Plasmodium berghei in mice (Mus musculus) at a dose of 320 mg/kg subcutaneously; Number of mice (Mus musculus) surviving at 60 days post infection and cured 3/5; conditions: route subcutaneous
Mus musculus [29] = experiment: Parenteral antimalarial effect against Plasmodium berghei in mice (Mus musculus) at a dose of 80 mg/kg subcutaneously; Number of mice (Mus musculus) surviving at 60 days post infection and cured 2/5; conditions: route subcutaneous
Staphylococcus aureus [30] = experiment: In vitro antibacterial effect against S. a. UC-76 by using gradient plate test
Shigella sonnei [31] = experiment: In vitro antibacterial effect against S. s C-10 by using gradient plate test
[32] = test system: Mycobacterium tuberculosis; experiment: In vitro antibacterial effect against M. t. H37Rv by using gradient plate test
Escherichia coli [33] = experiment: In vitro antibacterial effect against E. c. Vogel by using gradient plate test
Staphylococcus aureus [34] = experiment: In vitro antibacterial effect against S. a. S18713 by using gradient plate test
Enterococcus faecalis [35] = experiment: In vitro antibacterial effect against S. f MGH-2
Pseudomonas aeruginosa [36] = experiment: In vitro antibacterial effect against P.a 28 by using gradient plate test
Mus musculus [37] = experiment: Parenteral antimalarial effect against Plasmodium berghei in mice (Mus musculus) at a dose of 160 mg/kg subcutaneously; Number of mice (Mus musculus) surviving at 60 days post infection and cured 6/10; conditions: route subcutaneous
Mus musculus [38] = experiment: Parenteral antimalarial effect against Plasmodium berghei in mice (Mus musculus) at a dose of 320 mg/kg subcutaneously; Number of mice (Mus musculus) surviving at 60 days post infection and cured 3; No of toxic deaths 2; conditions: route subcutaneous

| SMILES | MST (Mus musculus [5]) [days] | MIC (Enterococcus faecalis [8]) [µg/mL] | MIC (Staphylococcus aureus [10]) [µg/mL] | MIC (Shigella sonnei [12]) [µg/mL] | MIC (Pseudomonas aeruginosa [13]) [µg/mL] | MIC [14] [µg/mL] | MIC (Staphylococcus aureus [15]) [µg/mL] | MST (Mus musculus [17]) [days] | MST (Mus musculus [19]) [days] | MST (Mus musculus [23]) [days] | MST (Mus musculus [24]) [days] | other results |
| --- | --- | --- | --- | --- | --- | --- | --- | --- | --- | --- | --- | --- |
| CN(Cc1ccc(Cl)cc1)c1cnc2nc(N)nc(N)c2n1 | 4.3 |  |  |  |  |  |  |  |  |  |  | MST (Mus musculus [1]): 7 days; MST (Mus musculus [2]): 4 days; MST (Mus musculus [3]): 3 days; MST (Mus musculus [4]): 5 days |
| CN(Cc1ccc2ccccc2c1)c1cnc2nc(N)nc(N)c2n1 | 5.9 | < 0.25 | < 0.25 | > 25 | > 25 | > 25 | < 0.25 |  |  |  |  | MST (Mus musculus [6]): 5 days; MST (Mus musculus [7]): 10 days; MST (Mus musculus [9]): 2 days; MST (Mus musculus [11]): 10 days; MIC (Escherichia coli [16]): > 25 µg/mL |
| COc1ccc2ccccc2c1CN(C)c1cnc2nc(N)nc(N)c2n1 |  |  |  |  |  |  |  | 0.2 | 0.2 |  |  | MST (Mus musculus [18]): 0.2 days |
| CN(Cc1ccc(Cl)c(Cl)c1)c1ccc2nc(N)nc(N)c2c1 | 8.7 |  |  |  |  |  |  |  |  |  |  | MST (Mus musculus [7]): 10 days; MST (Mus musculus [20]): 8 days; MST (Mus musculus [21]): 10 days |
| Nc1nc(N)c2nc(N3CCC(c4ccccc4)CC3)cnc2n1 |  | < 0.25 | > 0.25 | > 25 | > 25 | 10 (≈ 31.1 µM) | > 0.25 |  |  | 0.1 | 0.1 | MST (Mus musculus [22]): 0.1 days; MIC (Escherichia coli [16]): > 25 µg/mL |
| CC1(C)N=C(N)N=C(N)N1c1ccc(Cl)cc1.Cl [CHLORCYCLOGUANIL HYDROCHLORIDE] |  |  |  |  |  |  |  | 7.9 | 2 | 5 | 1 | MST (Mus musculus [22]): 5 days; MST (Mus musculus [18]): 3 days |
| CN(Cc1cccc(Br)c1)c1cnc2nc(N)nc(N)c2n1 |  |  |  |  |  |  |  | 6.9 | 10.7 | 12.8 | 10.2 | MST (Mus musculus [25]): 4 days; MST (Mus musculus [26]): 1 days |
| Nc1nc(N)c2nc(N3CCCC3c3ccc(Cl)cc3)cnc2n1 (stereo not drawn) | 7.9 |  |  |  |  |  |  | 10.1 |  |  | 12.1 | MST (Mus musculus [27]): 3 days; MST (Mus musculus [28]): 3 days; MST (Mus musculus [29]): 2 days |
| COc1cc(Cc2cnc(N)nc2N)cc(OC)c1OC [TRIMETHOPRIM] |  |  |  |  |  |  |  |  |  |  |  | MIC (Staphylococcus aureus [30]): < 0.25 µg/mL; MIC (Shigella sonnei [31]): > 25 µg/mL; MIC [32]: > 25 µg/mL; MIC (Escherichia coli [33]): > 25 µg/mL; MIC (Staphylococcus aureus [34]): < 0.25 µg/mL; MIC (Enterococcus faecalis [35]): < 0.25 µg/mL; MIC (Pseudomonas aeruginosa [36]): > 25 µg/mL |
| CN(Cc1ccccc1Cl)c1cnc2nc(N)nc(N)c2n1 |  | < 0.25 | < 0.25 | > 25 | > 25 | 5 (≈ 15.8 µM) | < 0.25 | 9.5 |  |  |  | MST (Mus musculus [37]): 6 days; MIC (Escherichia coli [33]): > 25 µg/mL; MST (Mus musculus [38]): 3 days |
| CN(Cc1cc2ccccc2c2ccccc12)c1cnc2nc(N)nc(N)c2n1 |  |  |  |  |  |  |  |  |  |  |  | MIC (Staphylococcus aureus [30]): < 0.25 µg/mL; MIC (Shigella sonnei [31]): > 25 µg/mL; MIC (Escherichia coli [33]): > 25 µg/mL; MIC (Staphylococcus aureus [34]): < 0.25 µg/mL; MIC (Enterococcus faecalis [35]): < 0.25 µg/mL; MIC (Pseudomonas aeruginosa [36]): > 25 µg/mL |
| CN(Cc1ccc2c(c1)Cc1ccccc1-2)c1cnc2nc(N)nc(N)c2n1 | 3.5 | < 0.25 | < 0.25 | > 25 | > 25 | 5 (≈ 13.5 µM) | < 0.25 | 6.3 | 2 | 5 | 8.1 | MST (Mus musculus [18]): 5 days; MIC (Escherichia coli [16]): > 25 µg/mL |
